From patent US9663495B2 (YUHAN CORPORATION, priority 2013, dated 2017)

How the values were obtained:
GPR119 [1] = target: T1, GPR119 (Homo sapiens, UniProt Q8TDV5); assay: cAMP Accumulation Assay (GPR119 CRE-bla CHO-K1 cells, LiveBLAzer-FRET B/G); type: cell-based; details: for EC50: 5 hours incubation; for Emax (Fold): maximum activity, response ratio versus non-treated control group
T1 construct: host or cells: CHO-K1 (GPR119 CRE-bla, doxycycline-induced)
T1 sequence (Q8TDV5 1-335): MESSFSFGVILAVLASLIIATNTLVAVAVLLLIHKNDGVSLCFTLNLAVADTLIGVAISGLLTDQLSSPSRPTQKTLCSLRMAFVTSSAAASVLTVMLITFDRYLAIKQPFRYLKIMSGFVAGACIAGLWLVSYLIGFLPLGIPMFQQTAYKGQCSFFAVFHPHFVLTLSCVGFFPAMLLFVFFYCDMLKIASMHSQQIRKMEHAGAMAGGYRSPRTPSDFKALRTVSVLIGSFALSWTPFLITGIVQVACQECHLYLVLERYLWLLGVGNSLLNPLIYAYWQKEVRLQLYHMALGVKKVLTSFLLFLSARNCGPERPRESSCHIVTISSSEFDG

male C57BL/6 mice = assay: Oral Glucose Tolerance Test (OGTT); type: in vivo; design: concentration or dose not given beside the values; details: fasted male C57BL/6 mice, oral administration 30 minutes before oral glucose; AUCglucose 0-120 minutes versus negative control group
Procedure: The oral glucose tolerance test of the compounds according to the present invention was carried out according to the procedures disclosed in Andrikopoulos S, Blair A R, Deluca N, Fam B C, Proietto J, Am J Physiol Endocrinol Metab. 2008, Vol 295, E1323-1332. Briefly, male C57BL/6 mice at 8 to 9 weeks of age having 20 g to 25 g of body weight (Orient Bio Inc. Korea) were allowed to acclimatize to the surroundings (temperature: 20±2° C., humidity: 40-60%, light/dark cycle: 12 hours) for 1 week. During the acclimatization, the mice were given ad libitum access to feed and water. The mice were fasted from 18 hours before the test, except for allowing free access to water. After measuring the mice′ body weights and blood sugar levels, they were divided into test groups so as to have similar blood sugar levels. The mice were orally administered with a mixture of test compound and the diluent (0.5% solution of MC1500 (Sigma)). At 30 minutes after the administration, the mice were also orally administered with 20% glucose solution in an amount of 0.1 ml per 10 g of body weight. The blood samples were taken from the tail vain at 0 (right before the administration of the glucose solution), 15, 30, 60, 90, and 120 minutes after the administration of the glucose solution; and the blood sugar levels thereof were measured with a blood glucose test meter (GlucoDr. AGM-3000, All Medicus Co. Ltd.). The graph for blood sugar level on time for each test compound was plotted from the respective blood sugar values; and then area under the curve (AUCglucose) was determined. The inhibition rate of blood sugar (%) was calculated from the following formula. Inhibition rate of blood sugar (%)=[(AUCglucose of the negative control group−AUCglucose of the test group)/AUCglucose of the negative control group]×100

GPR119 [2] = target: T1, GPR119; assay: cAMP Accumulation Assay (GPR119 CRE-bla CHO-K1 cells, LiveBLAzer-FRET B/G); type: cell-based; details: (Emax of the test compound/Emax of MBX-2982)x100, 5 hours incubation

Compound | EC50 (GPR119 [1]) | Emax (Fold) (GPR119 [1]) | Emax (% RR) (GPR119 [2]) | Inhibition rate of blood sugar (%) (male C57BL/6 mice)
CCc1cnc(N2CCN(c3ncc(-c4ccc(-n5cnn(CCN6CCCC6)c5=O)c(F)c4)cc3C#N)[C@@H](C)C2)nc1 [Example 14] | 14.8 nM | 3.3 Fold | 125.1 % RR | 18.6%
CCc1cnc(N2CCN(c3ncc(-c4ccc(-n5cnn(C(C)C)c5=O)c(F)c4)cc3C#N)CC2)nc1.Cl [Example 43, 2-(4-(5-ethylpyrimidin-2-yl)piperazin-1-yl)-5-(3-fluoro-4-(1-isopropyl-5-oxo-1H-1,2,4-triazol-4(5H)-yl)phenyl)nicotinonitrile hydrochloride] | – | 3.8 Fold | 130.9 % RR | 25.2%
CC(C)c1nc(N2CCN(c3ncc(-c4ccc(-n5cnn([C@H]6CCOC6)c5=O)c(F)c4)cc3C#N)CC2)no1 [Example 47, (S)-5-(3-fluoro-4-(5-oxo-1-(tetrahydrofuran-3-yl)-1H-1,2,4-triazol-4(5H)-yl)phenyl)-2-(4-(5-isopropyl-1,2,4-oxadiazol-3-yl)piperazin-1-yl)nicotinonitrile] | 12 nM | 3.2 Fold | 141.6 % RR | 32.7%
COCCn1ncn(-c2ccc(-c3cnc(N4CCC(c5noc(C(C)C)n5)CC4)c(C#N)c3)cc2)c1=O [Example 69, 2-(4-(5-isopropyl-1,2,4-oxadiazol-3-yl)piperidin-1-yl)-5-(4-(1-(2-methoxyethyl)-5-oxo-1H-1,2,4-triazol-4(5H)-yl)phenyl)nicotinonitrile] | 16 nM | 3.7 Fold | 126.7 % RR | 25.8%
CC(C)c1nc(C2CCN(c3ncc(-c4ccc(-n5cnn([C@@H]6CCOC6)c5=O)cc4)cc3C#N)CC2)no1 [Example 70, (R)-2-(4-(5-isopropyl-1,2,4-oxadiazol-3-yl)piperidin-1-yl)-5-(4-(5-oxo-1-(tetrahydrofuran-3-yl)-1H-1,2,4-triazol-4(5H)-yl)phenyl)nicotinonitrile] | 36 nM | 3.5 Fold | 120.0 % RR | 25.2%

The remaining molecules from weak to strong by EC50 (GPR119 [1]), led by results:

EC50 (GPR119 [1]) | Emax (Fold) (GPR119 [1]) | Emax (% RR) (GPR119 [2]) | Compound | Inhibition rate of blood sugar (%) (male C57BL/6 mice)
9.8 nM | 3.8 Fold | 127.3 % RR | CC(C)c1nc(C2CCN(c3ncc(-c4ccc(-n5cnn([C@H]6CCOC6)c5=O)cc4)cc3C#N)CC2)no1 [Example 71, (S)-2-(4-(5-isopropyl-1,2,4-oxadiazol-3-yl)piperidin-1-yl)-5-(4-(5-oxo-1-(tetrahydrofuran-3-yl)-1H-1,2,4-triazol-4(5H)-yl)phenyl)nicotinonitrile] | 20.4%
9 nM | 3.1 Fold | 112.1 % RR | CCc1cnc(N2CCN(c3ncc(-c4ccc(-n5cnn(CCOC)c5=O)cc4)cc3C#N)CC2)nc1 [Example 40, 2-(4-(5-ethylpyrimidin-2-yl)piperazin-1-yl)-5-(4-(1-(2-methoxyethyl)-5-oxo-1H-1,2,4-triazol-4(5H)-yl)phenyl)nicotinonitrile] | 17.2%
8.4 nM | 3.2 Fold | 113.8 % RR | CCc1cnc(N2CCN(c3ncc(-c4ccc(-n5cnn([C@@H]6CCNC6)c5=O)c(F)c4)cc3C#N)CC2)nc1 [Example 34, (R)-2-(4-(5-ethylpyrimidin-2-yl)piperazin-1-yl)-5-(3-fluoro-4-(5-oxo-1-(pyrrolidin-3-yl)-1H-1,2,4-triazol-4(5H)-yl)phenyl)nicotinonitrile] | 25.1%
8.2 nM | 3.2 Fold | 115.1 % RR | CCc1cnc(N2CCN(c3ncc(-c4ccc(-n5cnn(CCN)c5=O)c(F)c4)cc3C#N)[C@@H](C)C2)nc1.Cl [Example 17, (S)-5-(4-(1-(2-aminoethyl)-5-oxo-1H-1,2,4-triazol-4(5H)-yl)-3-fluorophenyl)-2-(4-(5-ethylpyrimidin-2-yl)-2-methylpiperazin-1-yl)nicotinonitrile hydrochloride] | 18.2%
5 nM | 3.5 Fold | 124.5 % RR | CCc1cnc(N2CCN(c3ncc(-c4ccc(-n5cnn(CCN6CCOCC6)c5=O)c(F)c4)cc3C#N)[C@@H](C)C2)nc1 [Example 15, (S)-2-(4-(5-ethylpyrimidin-2-yl)-2-methylpiperazin-1-yl)-5-(3-fluoro-4-(1-(2-morpholinoethyl)-5-oxo-1H-1,2,4-triazol-4(5H)-yl)phenyl)nicotinonitrile] | 21.7%
5 nM | 3.1 Fold | 113.4 % RR | CCc1cnc(N2CCN(c3ncc(-c4ccc(-n5cnn([C@@H]6CCOC6)c5=O)cc4)cc3C#N)CC2)nc1 [Example 41, (R)-2-(4-(5-ethylpyrimidin-2-yl)piperazin-1-yl)-5-(4-(5-oxo-1-(tetrahydrofuran-3-yl)-1H-1,2,4-triazol-4(5H)-yl)phenyl)nicotinonitrile] | 18.8%
4.4 nM | 4.0 Fold | 125.7 % RR | CCc1cnc(N2CCN(c3ncc(-c4ccc(-n5cnn([C@@H]6CCOC6)c5=O)c(F)c4)cc3C#N)CC2)nc1 [Example 33, (R)-2-(4-(5-ethylpyrimidin-2-yl)piperazin-1-yl)-5-(3-fluoro-4-(5-oxo-1-(tetrahydrofuran-3-yl)-1H-1,2,4-triazol-4(5H)-yl)phenyl)nicotinonitrile] | 20.9%
3.2 nM | 3.1 Fold | 110.0 % RR | CCc1cnc(N2CCN(c3ncc(-c4ccc(-n5cnn(CC(=O)N6CCCC6)c5=O)c(F)c4)cc3C#N)CC2)nc1 [Example 37, 2-(4-(5-ethylpyrimidin-2-yl)piperazin-1-yl)-5-(3-fluoro-4-(5-oxo-1-(2-oxo-2-(pyrrolidin-1-yl)ethyl)-1H-1,2,4-triazol-4(5H)-yl)phenyl)nicotinonitrile] | 16.5%
